ChEMBL document CHEMBL3885881, “DrugMatrix”

Species on record: Rattus norvegicus
Assay: DrugMatrix - Regimen: Daily Repeat
Assay type: toxicity, organism-based, Sprague-Dawley
Set-up: regimen Daily Repeat, gender Male, age 6-8 weeks
Conditions: in vivo, po, route oral GAVAGE, vehicle .5 % CMC; for BASOPHIL / EOSINOPHIL / ERYTHROCYTE COUNT / HEMATOCRIT / HEMOGLOBIN / LEUKOCYTE COUNT / LYMPHOCYTE / MEAN CORPUSCULAR HEMOGLOBIN / MEAN CORPUSCULAR HEMOGLOBIN CONCENTRATION / MEAN CORPUSCULAR VOLUME / MONOCYTE / NEUTROPHIL / PLATELET COUNT: tissue Blood; for ALANINE AMINOTRANSFERASE / ALBUMIN / ALKALINE PHOSPHATASE / ASPARTATE AMINOTRANSFERASE / BLOOD UREA NITROGEN / CARBON DIOXIDE / CHLORIDE / CHOLESTEROL / CREATINE PHOSPHOKINASE / CREATININE / GLUCOSE / LACTATE DEHYDROGENASE / LIPASE / PHOSPHORUS / POTASSIUM / SODIUM / TOTAL BILIRUBIN / TOTAL PROTEIN / URIC ACID: tissue Plasma
[1] = 0 mg/kg, 96 h, dose level Control, time 4 day
[2] = 0 mg/kg, […], dose level Control, time 6 day
[3] = 0 mg/kg, […], dose level Control, time 14 day
[4] = 750 mg/kg, 96 h, dose level High, time 4 day
[5] = 750 mg/kg, […], dose level High, time 6 day
[6] = 750 mg/kg, […], dose level High, time 14 day

SMILES: Cc1ccc([N+](=O)[O-])cc1 [4-NITROTOLUENE]
- BASOPHIL [1]: 0.5%
- EOSINOPHIL [1]: 1.85%
- ERYTHROCYTE COUNT [1]: 6.99 x10E6/uL
- HEMATOCRIT [1]: 43.82%
- HEMOGLOBIN [1]: 13.87 G/DL
- LEUKOCYTE COUNT [1]: 12.01 x10E3/uL
- LYMPHOCYTE [1]: 82.07%
- MEAN CORPUSCULAR HEMOGLOBIN [1]: 19.8 pg
- MEAN CORPUSCULAR HEMOGLOBIN CONCENTRATION [1]: 31.63 G/DL
- MEAN CORPUSCULAR VOLUME [1]: 62.7 fL
- MONOCYTE [1]: 2.6%
- NEUTROPHIL [1]: 12.38%
- PLATELET COUNT [1]: 1155 x10E3/uL
- ALANINE AMINOTRANSFERASE [1]: 31.67 u/L
- ALBUMIN [1]: 4.12 G/DL
- ALKALINE PHOSPHATASE [1]: 396 u/L
- ASPARTATE AMINOTRANSFERASE [1]: 75.67 u/L
- BLOOD UREA NITROGEN [1]: 17.5 mg/dL
- CARBON DIOXIDE [1]: 28.83 mmol/L
- CHLORIDE [1]: 103.83 MEQ/L
- CHOLESTEROL [1]: 84.83 mg/dL
- CREATINE PHOSPHOKINASE [1]: 597.17 u/L
- CREATININE [1]: 0.3 mg/dL
- GLUCOSE [1]: 161.5 mg/dL
- LACTATE DEHYDROGENASE [1]: 138.67 u/L
- LIPASE [1]: 11.5 u/L
- PHOSPHORUS [1]: 11.58 mg/dL
- POTASSIUM [1]: 6.87 MEQ/L
- SODIUM [1]: 146.83 MEQ/L
- TOTAL BILIRUBIN [1]: 0.38 mg/dL
- TOTAL PROTEIN [1]: 6.33 G/DL
- URIC ACID [1]: 1.37 mg/dL
- BASOPHIL [2]: 0.37%
- EOSINOPHIL [2]: 0.38%
- ERYTHROCYTE COUNT [2]: 6.89 x10E6/uL
- HEMATOCRIT [2]: 47.38%
- HEMOGLOBIN [2]: 14.8 G/DL
- LEUKOCYTE COUNT [2]: 13.59 x10E3/uL
- LYMPHOCYTE [2]: 80.27%
- MEAN CORPUSCULAR HEMOGLOBIN [2]: 21.52 pg
- MEAN CORPUSCULAR HEMOGLOBIN CONCENTRATION [2]: 31.22 G/DL
- MEAN CORPUSCULAR VOLUME [2]: 68.83 fL
- MONOCYTE [2]: 2.78%
- NEUTROPHIL [2]: 15.65%
- PLATELET COUNT [2]: 1330.17 x10E3/uL
- BASOPHIL [3]: 0.38%
- EOSINOPHIL [3]: 0.6%
- ERYTHROCYTE COUNT [3]: 7.78 x10E6/uL
- HEMATOCRIT [3]: 48.3%
- HEMOGLOBIN [3]: 15.42 G/DL
- LEUKOCYTE COUNT [3]: 13.55 x10E3/uL
- LYMPHOCYTE [3]: 81.18%
- MEAN CORPUSCULAR HEMOGLOBIN [3]: 19.8 pg
- MEAN CORPUSCULAR HEMOGLOBIN CONCENTRATION [3]: 31.92 G/DL
- MEAN CORPUSCULAR VOLUME [3]: 62.08 fL
- MONOCYTE [3]: 1.72%
- NEUTROPHIL [3]: 15.17%
- PLATELET COUNT [3]: 1083.83 x10E3/uL
- ALANINE AMINOTRANSFERASE [2]: 36 u/L
- ALBUMIN [2]: 4.03 G/DL
- ALKALINE PHOSPHATASE [2]: 354.17 u/L
- ASPARTATE AMINOTRANSFERASE [2]: 76.5 u/L
- BLOOD UREA NITROGEN [2]: 19.33 mg/dL
- CARBON DIOXIDE [2]: 27.83 mmol/L
- CHLORIDE [2]: 105.5 MEQ/L
- CHOLESTEROL [2]: 68.83 mg/dL
- CREATINE PHOSPHOKINASE [2]: 383.83 u/L
- CREATININE [2]: 0.35 mg/dL
- GLUCOSE [2]: 165.83 mg/dL
- LACTATE DEHYDROGENASE [2]: 155.17 u/L
- LIPASE [2]: 9.83 u/L
- PHOSPHORUS [2]: 12.4 mg/dL
- POTASSIUM [2]: 6.9 MEQ/L
- SODIUM [2]: 147.33 MEQ/L
- TOTAL BILIRUBIN [2]: 0.52 mg/dL
- TOTAL PROTEIN [2]: 6.42 G/DL
- URIC ACID [2]: 1.6 mg/dL
- ALANINE AMINOTRANSFERASE [3]: 36.83 u/L
- ALBUMIN [3]: 4.13 G/DL
- ALKALINE PHOSPHATASE [3]: 328.17 u/L
- ASPARTATE AMINOTRANSFERASE [3]: 74.83 u/L
- BLOOD UREA NITROGEN [3]: 18.67 mg/dL
- CARBON DIOXIDE [3]: 29.33 mmol/L
- CHLORIDE [3]: 105.17 MEQ/L
- CHOLESTEROL [3]: 72 mg/dL
- CREATINE PHOSPHOKINASE [3]: 217.67 u/L
- CREATININE [3]: 0.45 mg/dL
- GLUCOSE [3]: 151.17 mg/dL
- LACTATE DEHYDROGENASE [3]: 133.17 u/L
- LIPASE [3]: 14.5 u/L
- PHOSPHORUS [3]: 11.55 mg/dL
- POTASSIUM [3]: 6.77 MEQ/L
- SODIUM [3]: 149.33 MEQ/L
- TOTAL BILIRUBIN [3]: 0.37 mg/dL
- TOTAL PROTEIN [3]: 6.62 G/DL
- URIC ACID [3]: 1.57 mg/dL
- BASOPHIL [4]: 0.3%
- EOSINOPHIL [4]: 0.63%
- ERYTHROCYTE COUNT [4]: 6.55 x10E6/uL
- HEMATOCRIT [4]: 41.57%
- HEMOGLOBIN [4]: 12.83 G/DL
- LEUKOCYTE COUNT [4]: 12.7 x10E3/uL
- LYMPHOCYTE [4]: 82.73%
- MEAN CORPUSCULAR HEMOGLOBIN [4]: 19.6 pg
- MEAN CORPUSCULAR HEMOGLOBIN CONCENTRATION [4]: 30.9 G/DL
- MEAN CORPUSCULAR VOLUME [4]: 63.5 fL
- MONOCYTE [4]: 1.93%
- NEUTROPHIL [4]: 13.9%
- PLATELET COUNT [4]: 1261.33 x10E3/uL
- ALANINE AMINOTRANSFERASE [4]: 28.33 u/L
- ALBUMIN [4]: 3.93 G/DL
- ALKALINE PHOSPHATASE [4]: 300 u/L
- ASPARTATE AMINOTRANSFERASE [4]: 82.67 u/L
- BLOOD UREA NITROGEN [4]: 18.67 mg/dL
- CARBON DIOXIDE [4]: 25.33 mmol/L
- CHLORIDE [4]: 106 MEQ/L
- CHOLESTEROL [4]: 90 mg/dL
- CREATINE PHOSPHOKINASE [4]: 852 u/L
- CREATININE [4]: 0.4 mg/dL
- GLUCOSE [4]: 175.33 mg/dL
- LACTATE DEHYDROGENASE [4]: 320.67 u/L
- LIPASE [4]: 11 u/L
- PHOSPHORUS [4]: 12.03 mg/dL
- POTASSIUM [4]: 6.37 MEQ/L
- SODIUM [4]: 147 MEQ/L
- TOTAL BILIRUBIN [4]: 0.4 mg/dL
- TOTAL PROTEIN [4]: 6.07 G/DL
- URIC ACID [4]: 1.5 mg/dL
- BASOPHIL [5]: 0.2%
- EOSINOPHIL [5]: 0.4%
- ERYTHROCYTE COUNT [5]: 6.89 x10E6/uL
- HEMATOCRIT [5]: 50%
- HEMOGLOBIN [5]: 14.85 G/DL
- LEUKOCYTE COUNT [5]: 11.06 x10E3/uL
- LYMPHOCYTE [5]: 89%
- MEAN CORPUSCULAR HEMOGLOBIN [5]: 21.5 pg
- MEAN CORPUSCULAR HEMOGLOBIN CONCENTRATION [5]: 29.65 G/DL
- MEAN CORPUSCULAR VOLUME [5]: 72.6 fL
- MONOCYTE [5]: 0.95%
- NEUTROPHIL [5]: 9%
- PLATELET COUNT [5]: 1574 x10E3/uL
- BASOPHIL [6]: 0.68%
- EOSINOPHIL [6]: 0.52%
- ERYTHROCYTE COUNT [6]: 7.67 x10E6/uL
- HEMATOCRIT [6]: 48.12%
- HEMOGLOBIN [6]: 15.24 G/DL
- LEUKOCYTE COUNT [6]: 10.23 x10E3/uL
- LYMPHOCYTE [6]: 81.12%
- MEAN CORPUSCULAR HEMOGLOBIN [6]: 19.9 pg
- MEAN CORPUSCULAR HEMOGLOBIN CONCENTRATION [6]: 31.7 G/DL
- MEAN CORPUSCULAR VOLUME [6]: 62.76 fL
- MONOCYTE [6]: 2.12%
- NEUTROPHIL [6]: 14.52%
- PLATELET COUNT [6]: 1133.4 x10E3/uL
- ALANINE AMINOTRANSFERASE [5]: 39 u/L
- ALBUMIN [5]: 4.2 G/DL
- ALKALINE PHOSPHATASE [5]: 351.67 u/L
- ASPARTATE AMINOTRANSFERASE [5]: 89 u/L
- BLOOD UREA NITROGEN [5]: 16.67 mg/dL
- CARBON DIOXIDE [5]: 29.33 mmol/L
- CHLORIDE [5]: 106 MEQ/L
- CHOLESTEROL [5]: 68 mg/dL
- CREATINE PHOSPHOKINASE [5]: 701.67 u/L
- CREATININE [5]: 0.6 mg/dL
- GLUCOSE [5]: 151.33 mg/dL
- LACTATE DEHYDROGENASE [5]: 127 u/L
- LIPASE [5]: 10.67 u/L
- PHOSPHORUS [5]: 11.57 mg/dL
- POTASSIUM [5]: 6.27 MEQ/L
- SODIUM [5]: 149.33 MEQ/L
- TOTAL BILIRUBIN [5]: 0.33 mg/dL
- TOTAL PROTEIN [5]: 6.5 G/DL
- URIC ACID [5]: 1.4 mg/dL
- ALANINE AMINOTRANSFERASE [6]: 40.6 u/L
- ALBUMIN [6]: 4.04 G/DL
- ALKALINE PHOSPHATASE [6]: 340.4 u/L
- ASPARTATE AMINOTRANSFERASE [6]: 91.2 u/L
- BLOOD UREA NITROGEN [6]: 18.2 mg/dL
- CARBON DIOXIDE [6]: 28.6 mmol/L
- CHLORIDE [6]: 105.6 MEQ/L
- CHOLESTEROL [6]: 66.6 mg/dL
- CREATINE PHOSPHOKINASE [6]: 631.6 u/L
- CREATININE [6]: 0.56 mg/dL
- GLUCOSE [6]: 157.4 mg/dL
- LACTATE DEHYDROGENASE [6]: 226.6 u/L
- LIPASE [6]: 13.6 u/L
- PHOSPHORUS [6]: 12.16 mg/dL
- POTASSIUM [6]: 6.96 MEQ/L
- SODIUM [6]: 149.8 MEQ/L
- TOTAL BILIRUBIN [6]: 0.38 mg/dL
- TOTAL PROTEIN [6]: 6.12 G/DL
- URIC ACID [6]: 1.8 mg/dL
